Literature values, collected in patent publication US20210000792A1, “METHODS FOR REDUCING OR PREVENTING CARDIOVASCULAR EVENTS IN PATIENTS WITH TYPE II DIABETES MELLITUS” (Janssen Pharmaceutica NV, priority 2017, published 2021).

Tested on: diabetic patients
Settings: metformin on its own; cited from earlier work

CN(C)C(=N)N=C(N)N [metformin]
Average improvement in the HbA1c value: 1.0-1.5%
